Test results from PubChem BioAssay (NCI).
“And” between values parts separate entries of the source, which are not always exact repeats. Equal entries are not always repeated.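 Cells were grown in 96-well plates and exposed to each compound for 48 hours at five concentrations; endpoints were interpolated linearly between bracketing concentrations, or set to the highest concentration if not reached. The concentration for 50% growth inhibition is given as GI50. TGI: concentration producing complete growth inhibition.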

Tests used:
Test in all cases: growth of human tumour cells (NCI), 48 h
CAKI-1 renal = system: CAKI-1 renal
HCC-2998 colon = system: HCC-2998 colon
HCT-116 colon = system: HCT-116 colon
HOP-62 NSCLC = system: HOP-62 NSCLC
NCI-H226 lung = system: NCI-H226 lung
NCI-H522 lung = system: NCI-H522 lung
SK-MEL-5 melanoma = system: SK-MEL-5 melanoma
SNB-75 CNS = system: SNB-75 CNS
TK-10 renal = system: TK-10 renal
UACC-257 melanoma = system: UACC-257 melanoma

| SMILES | TGI (CAKI-1 renal) | TGI (HCC-2998 colon) | TGI (HCT-116 colon) | TGI (HOP-62 NSCLC) | TGI (NCI-H226 lung) | TGI (NCI-H522 lung) | TGI (SK-MEL-5 melanoma) | TGI (SNB-75 CNS) | TGI (TK-10 renal) | TGI (UACC-257 melanoma) | GI50 (CAKI-1 renal) | GI50 (HCC-2998 colon) | GI50 (HCT-116 colon) | GI50 (HOP-62 NSCLC) | GI50 (NCI-H226 lung) | GI50 (NCI-H522 lung) | GI50 (SK-MEL-5 melanoma) | GI50 (SNB-75 CNS) | GI50 (TK-10 renal) | GI50 (UACC-257 melanoma) |
| --- | --- | --- | --- | --- | --- | --- | --- | --- | --- | --- | --- | --- | --- | --- | --- | --- | --- | --- | --- | --- |
| CC(C)c1ccc2c(c1)CCC1C(C)(CN)CCCC21C (stereo not given) | 2.96 µM | 0.485 µM | 2.93 µM | 3.14 µM | 3.4 µM | 3.36 µM | 3.17 µM | 3.19 µM | 3.08 µM | 3.03 µM |  |  |  |  |  |  |  |  |  |  |
| O=C(O)c1cc(C(=O)C(=O)c2cc(C(=O)O)c(O)c3ccccc23)c2ccccc2c1O | > 100 µM | > 100 µM | > 100 µM | > 100 µM | > 100 µM | > 100 µM | > 100 µM | > 100 µM | > 100 µM | > 100 µM |  |  |  |  |  |  |  |  |  |  |
| Fc1ccc(-c2nn3c(COc4ccccc4Cl)nnc3s2)cc1Oc1ccccc1 | 44 µM | 77.4 µM | 66.1 µM | 40.1 µM | > 100 µM | > 100 µM | > 100 µM | 93.7 µM | 47.1 µM | > 100 µM | 19.4 µM | 28.6 µM | 23.2 µM | 19.4 µM | 32.7 µM | 29.6 µM | 53.3 µM | 30.7 µM | 20.5 µM | > 100 µM |
| COc1cccc(Nc2ncnn3ccc(CN4CC[C@@H](N)[C@H](O)C4)c23)c1 | 2.52 µM and > 4.35 µM | 36.1 µM and > 9.59 µM | 26.4 µM and > 6.8 µM | 27.3 µM and > 10 µM | 13 µM and > 8.94 µM | 15.1 µM and > 4.56 µM | 27.8 µM and > 10 µM | 0.808 µM and 0.49 µM | 1.65 µM and 1.5 µM | 34 µM and > 10 µM | 0.2 µM and 0.242 µM | 15.6 µM and > 3.65 µM | 6.69 µM and 2.55 µM | 4.22 µM and 0.506 µM | 2.66 µM and 1.38 µM | 0.0245 µM and 0.0175 µM | 14.5 µM and > 5.6 µM | 0.102 µM and 0.043 µM | 0.0322 µM and 0.0167 µM | 17.5 µM and > 5.79 µM |
| N#C/C(=C\c1ccc([N+](=O)[O-])cc1)n1nnc2cc(F)c(F)cc21 | 2.92 µM | 3.36 µM | 3.01 µM | 4.11 µM | 5.73 µM | 3.79 µM | 3.69 µM | 3.02 µM | 3.33 µM | 5.65 µM | 1.54 µM | 1.67 µM | 1.54 µM | 1.78 µM | 1.97 µM | 1.66 µM | 1.89 µM | 1.52 µM | 1.89 µM | 2.17 µM |
| O=C(NCCNc1nccc(-c2c(-c3ccc(F)cc3)nc3sccn23)n1)Nc1cccc(C(F)(F)F)c1 | 27.6 µM | 17.7 µM | 18.9 µM | 10.1 µM | 10.6 µM | 26 µM | 3.43 µM | 21.7 µM | 36.2 µM | 26.1 µM | 3.68 µM | 5.21 µM | 5.47 µM | 2.9 µM | 2.38 µM | 12.2 µM | 1.58 µM | 7.13 µM | 10.5 µM | 10.6 µM |
| OCC(O)COc1ccc(F)cc1 (stereo not given) | > 100 µM | > 100 µM | > 100 µM | > 100 µM | > 100 µM | > 100 µM | > 100 µM | > 100 µM | > 100 µM | > 100 µM |  |  |  |  |  |  |  |  |  |  |
